These are literature values, as cited in patent publication US20240294879A1, “STEM CELL DIFFERENTIATION AND POLYMERS” (VERTEX PHARMACEUTICALS INCORPORATED, priority 2021, published 2024).

The target of this data set is EZH2 (Homo sapiens, UniProt Q15910).
Chain of EZH2 (Q15910 whole entry, species assumed): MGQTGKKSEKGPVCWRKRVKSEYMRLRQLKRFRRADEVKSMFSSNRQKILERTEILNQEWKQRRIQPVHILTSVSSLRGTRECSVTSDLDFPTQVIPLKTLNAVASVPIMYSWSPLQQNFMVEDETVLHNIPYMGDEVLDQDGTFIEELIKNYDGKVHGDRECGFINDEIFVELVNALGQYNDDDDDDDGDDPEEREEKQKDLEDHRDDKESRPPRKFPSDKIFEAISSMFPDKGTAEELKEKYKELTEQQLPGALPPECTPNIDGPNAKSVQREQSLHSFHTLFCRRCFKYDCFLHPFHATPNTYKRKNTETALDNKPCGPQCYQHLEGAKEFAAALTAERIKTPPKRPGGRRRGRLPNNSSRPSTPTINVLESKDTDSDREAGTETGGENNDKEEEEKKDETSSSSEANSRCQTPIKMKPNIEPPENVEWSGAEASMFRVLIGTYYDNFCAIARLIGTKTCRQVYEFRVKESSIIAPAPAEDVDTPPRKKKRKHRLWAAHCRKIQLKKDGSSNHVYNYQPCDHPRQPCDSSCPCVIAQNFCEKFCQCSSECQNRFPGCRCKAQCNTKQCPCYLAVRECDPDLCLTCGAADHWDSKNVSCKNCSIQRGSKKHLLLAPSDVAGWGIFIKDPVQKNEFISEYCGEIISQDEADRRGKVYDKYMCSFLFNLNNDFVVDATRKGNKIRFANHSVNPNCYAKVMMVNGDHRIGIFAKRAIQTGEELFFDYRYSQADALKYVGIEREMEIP
Chain of EZH2 (O75530 whole entry partner, species assumed): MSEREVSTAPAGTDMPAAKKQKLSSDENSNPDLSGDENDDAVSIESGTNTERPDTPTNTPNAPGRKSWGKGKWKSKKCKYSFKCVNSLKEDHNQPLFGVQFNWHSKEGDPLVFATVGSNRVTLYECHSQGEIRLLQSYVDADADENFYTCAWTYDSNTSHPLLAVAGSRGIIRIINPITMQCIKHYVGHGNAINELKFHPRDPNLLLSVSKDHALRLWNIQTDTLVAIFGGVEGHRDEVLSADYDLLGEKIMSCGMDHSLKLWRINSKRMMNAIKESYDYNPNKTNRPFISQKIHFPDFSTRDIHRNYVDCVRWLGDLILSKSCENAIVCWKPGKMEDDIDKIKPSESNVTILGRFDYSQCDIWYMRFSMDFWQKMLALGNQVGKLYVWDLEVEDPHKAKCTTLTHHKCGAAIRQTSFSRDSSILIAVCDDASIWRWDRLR
Chain of EZH2 (Q15022 whole entry partner, species assumed): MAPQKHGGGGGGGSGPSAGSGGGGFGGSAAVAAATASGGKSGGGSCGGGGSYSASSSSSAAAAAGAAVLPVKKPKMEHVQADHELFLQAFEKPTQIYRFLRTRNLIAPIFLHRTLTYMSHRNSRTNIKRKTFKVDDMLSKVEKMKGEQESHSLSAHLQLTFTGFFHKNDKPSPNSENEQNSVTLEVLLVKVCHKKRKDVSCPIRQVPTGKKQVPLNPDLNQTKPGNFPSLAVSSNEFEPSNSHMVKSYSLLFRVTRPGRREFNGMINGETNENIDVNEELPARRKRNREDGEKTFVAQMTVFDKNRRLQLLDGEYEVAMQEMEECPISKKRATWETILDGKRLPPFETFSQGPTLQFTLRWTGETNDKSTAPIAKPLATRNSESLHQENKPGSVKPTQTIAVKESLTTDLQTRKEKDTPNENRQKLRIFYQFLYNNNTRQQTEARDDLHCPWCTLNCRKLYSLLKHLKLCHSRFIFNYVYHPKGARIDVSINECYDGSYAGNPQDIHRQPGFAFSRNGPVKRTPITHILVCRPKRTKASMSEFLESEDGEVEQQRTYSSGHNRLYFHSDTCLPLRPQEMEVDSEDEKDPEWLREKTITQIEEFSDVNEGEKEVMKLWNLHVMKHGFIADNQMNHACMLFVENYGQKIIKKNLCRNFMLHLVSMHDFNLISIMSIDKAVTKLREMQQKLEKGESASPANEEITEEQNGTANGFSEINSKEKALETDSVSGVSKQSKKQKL

Turning to `CC[C@H](C)n1cc(C)c2c(C(=O)NCc3c(C)cc(C)[nH]c3=O)cc(-c3ccc(N4CCNCC4)nc3)cc21` [GSK126], the “selectivity over EZH1” value (EZH2 versus EZH1) is recorded as 150 fold.
With `CCCc1cc(C)[nH]c(=O)c1CNC(=O)c1cc(-c2ccc(N3CCN(C(C)C)CC3)nc2)cc2c1cnn2C(C)C` [UNC1999], where the note is “EZH2 inhibitor”, the “selectivity relative to GSK126” value was “less selective”.
